We go through 74 molecules from PubChem BioAssay AID608 (Sanford-Burnham Center for Chemical Genomics, 2007).

The structures appear in SMILES notation. Calls of active or inactive are those of the source. No rule for the calls is given here.

The target of the test is Peptidyl-prolyl cis-trans isomerase FKBP1A (Homo sapiens) (UniProt P62942). The experiment in a line: FKBP12 binders, biophysical, NMR detection (AID 608). The conditions noted are these: NMR binding, purified FKBP12.
Sequence of Peptidyl-prolyl cis-trans isomerase FKBP1A (Homo sapiens) (P62942 whole entry, looked up): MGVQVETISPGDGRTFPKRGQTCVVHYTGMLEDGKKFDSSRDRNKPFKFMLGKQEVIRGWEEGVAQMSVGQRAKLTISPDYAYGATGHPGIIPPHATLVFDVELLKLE
`CNc1nc(OC)nc(N2CCOCC2)n1`: the Kd was > 4 mM (inactive).

Regarding `Cc1cccc(NS(=O)(=O)c2cccs2)n1`, the Kd is > 4 mM (inactive).

As to `CC(CC(=O)O)n1cccn1` (centres undefined), the Kd was > 4 mM (inactive).

As for `CC12CCC(O)CC1CCC1C2[C@H](O)CC2(C)C(C3=CC(=O)OC3)CCC12O` (some centres undefined), the Kd is > 4 mM (inactive).

Take `O[C@H]1C=C2CCN3Cc4cc5c(cc4C(C23)[C@@H]1O)OCO5` (some centres undefined): the Kd is > 4 mM (inactive).

Take `CC(N)C(=O)c1ccco1` (centres undefined): the Kd is > 4 mM (inactive).

For the molecule `O=C(Nc1ccccc1CO)c1ccccc1F`, the Kd is > 4 mM (inactive).

With `CC(C)CCCC(C)C1CCC2C3=CC[C@H]4C[C@@H](O)CC[C@]4(C)C3CC[C@@]21C` (some centres undefined), the Kd is > 4 mM (inactive).

Turning to `O=S(=O)(Nc1cccc2cn[nH]c12)c1ccc(F)cc1`, the Kd is > 4 mM (inactive).

Regarding `Cc1cc(NS(=O)(=O)Cc2ccccc2)no1`, the Kd was > 4 mM (inactive).

As for `Cc1ccc(NC(=O)N2CCC(C(N)=O)CC2)cc1`, the Kd was > 4 mM (inactive).

For `CC(C)Nc1nc2n(c(=O)n1)CCN2C(C)C`, the Kd was > 4 mM (inactive).

Regarding `CN(C)C(=O)CSc1cccc2cccnc12`, the Kd was > 4 mM (inactive).

As to `Cc1nc2[nH]onc2c2nccc(=O)c12`, the Kd is > 4 mM (inactive).

In the case of `Cc1cc(C)n(-c2nc(C)nc(N)n2)n1`, the Kd is > 4 mM (inactive).

Regarding `O=C1C(=O)N(CN2CCN(CCO)CC2)c2ccccc21`, the Kd was > 4 mM (inactive).

In the case of `CC(=O)c1c(C)nc(C)nc1NC(=O)C(C)C`, the Kd was > 4 mM (inactive).

Turning to `CC1(NC(=O)NCc2ccccc2)CCS(=O)(=O)C1` (centres undefined), the Kd is > 4 mM (inactive).

As for `CCOC(=O)C1CN(C)CCN1C` (centres undefined), the Kd was > 4 mM (inactive).

`Fc1ccc(F)c(CN2CCN(c3ncccn3)CC2)c1`: the Kd was > 4 mM (inactive).

Turning to `CC(=O)n1c(N)nc2ccccc21`, the Kd is > 4 mM (inactive).

Consider `O=C(Nc1ccccc1)NC1CCS(=O)(=O)C1` (centres undefined), for which the Kd is > 4 mM (inactive).

For the molecule `S=c1nc2c(n[nH]1)[nH]c1ccccc12`, the Kd was > 4 mM (inactive).

In the case of `COC(=O)c1c(SC)nc(-c2ccccc2)[nH]c1=O`, the Kd was > 4 mM (inactive).

Take `NC(=O)c1ccc(Cl)c(N2C(=O)CCC2=O)c1`: the Kd was > 4 mM (inactive).

For the molecule `COc1ccc2c(c1)C(NC(C)=O)C(=O)N2C` (centres undefined), the Kd is > 4 mM (inactive).

Regarding `CSc1nc2nc(C)cc(=O)n2[nH]1`, the Kd is > 4 mM (inactive).

`Cc1nc2ccc(C(=O)N3CCSCC3)cc2s1`: the Kd is > 4 mM (inactive).

For `CC(C)C1COc2cc3oc(=O)ccc3cc2O1` (centres undefined), the Kd was > 4 mM (inactive).

Turning to `CC(=O)NC(c1ccccc1)c1cccnc1` (centres undefined), the Kd is > 4 mM (inactive).

With `COc1ccc2c(c1)OC[C@@H](Cc1ccc(OC)c(OC)c1)[C@@H]2O`, the Kd is > 4 mM (inactive).

Regarding `CC(=O)c1cccc(NS(=O)(=O)N2CCOCC2)c1`, the Kd entry was “inactive”.

For `O=C(NN1CCOCC1)c1ccccc1F`, the Kd is > 4 mM (inactive).

Turning to `Cn1c(SCCC(=O)O)nnc1-c1cccnc1`, the Kd is > 4 mM (inactive).

`O=C1C=CC(=O)c2c(O)cccc21`: the Kd was > 4 mM (inactive).

Turning to `CCN=Cc1c(O)n(-c2ccccc2C)c(=O)[nH]c1=O`, the Kd was > 4 mM (inactive).

For `O=C1NC(=S)N/C1=C/c1ccc(O)c(Cl)c1`, the Kd is > 4 mM (inactive).

Consider `CCOc1ccc(NS(=O)(=O)N2CCCCC2)cc1`, for which the Kd result is “inactive”.

For `CC(C)(C)c1cc(NC(=O)c2cccnc2)no1`, the Kd is > 4 mM (inactive).

Take `O=c1[nH]cc(NCc2ccco2)c(=O)[nH]1`: the Kd is > 4 mM (inactive).

As to `O=C(Nc1ccon1)c1cc2c(s1)CCCC2`, the Kd is > 4 mM (inactive).

For `Cn1c(=O)c2cn3ncccc3c2n(C)c1=O`, the Kd was > 4 mM (inactive).

As to `CCn1nnc2c(NCc3ccccn3)ncnc21`, the Kd was > 4 mM (inactive).

As for `CCC(C)C(=O)O[C@H]1[C@H](O)C2C(CN3CC(C)CCC3[C@@]2(C)O)C2C[C@]34O[C@]5(O)C(OC(=O)C(C)(O)C(C)O)CC[C@@]3(C)C5C(OC(C)=O)[C@@H](OC(C)=O)C4[C@@]21O` (some centres undefined), the Kd is > 4 mM (inactive).

Consider `CCN1C(=O)N(CO)C2C1N(C)C(=O)N2C` (centres undefined), for which the Kd was > 4 mM (inactive).

As for `O=C(Nc1ccccn1)C(=O)N1CCCC1`, the Kd is > 4 mM (inactive).

Turning to `C/C=C/C(=O)Nc1ccc(NC(C)=O)cc1`, the Kd is > 4 mM (inactive).

Consider `CC(=O)OC1CCC2(O)CC1(C)CCC1C2CC1(C)C` (centres undefined), for which the Kd was > 4 mM (inactive).

As to `O=C(O)CCN1CCc2ccccc2C1c1ccncc1` (centres undefined), the Kd was > 4 mM (inactive).

Take `Cc1cc(C(=O)Nc2sc(C)c(C)c2C#N)c(C)o1`: the Kd was > 4 mM (inactive).

`O=c1c2c(nc3nc(COc4ccccc4)[nH]n13)CCC2`: the Kd is > 4 mM (inactive).

Turning to `CC(=O)c1c(O)n(C)c(=S)n(C)c1=O`, the Kd is > 4 mM (inactive).

Turning to `CCn1c(=O)cc(N2CCC3(CC2)OCCO3)[nH]c1=O`, the Kd was > 4 mM (inactive).

`O=C(c1cccs1)N1CCCc2ccccc21`: the Kd is > 4 mM (inactive).

For the molecule `CC(=O)O[C@@H]1CC2C(C)(C)[C@H](O)C[C@H](O)[C@]2(C)C2CC[C@@]3(C)C(=CC(=O)O[C@H]3c3ccoc3)[C@@]21C` (some centres undefined), the Kd was > 4 mM (inactive).

For `Cc1ccc(S(C)(=O)=O)s1`, the Kd was > 4 mM (inactive).

Regarding `Cn1cnnc1SCC(=O)Nc1ccccc1`, the Kd is > 4 mM (inactive).

As to `COC(=O)c1sccc1S(=O)(=O)N1CCCC1`, the Kd is > 4 mM (inactive).

As for `CC(=O)N1CCn2c3c(c(=O)c4cc(C)ccc42)CCC31` (centres undefined), the Kd is > 4 mM (inactive).

Turning to `CCS(=O)(=O)N1CCN(c2ccccc2F)CC1`, the Kd was > 4 mM (inactive).

Consider `O=c1[nH]c(N2CCOCC2)nc2ccccc12`, for which the Kd is > 4 mM (inactive).

For the molecule `[O-][n+]1onc2c1CCc1c-2nc(-c2ccccc2)n1O`, the Kd was > 4 mM (inactive).

`COc1ccc2nc(NC(=O)c3cnccn3)sc2c1`: the Kd is > 4 mM (inactive).

Take `Cc1oc(-c2ccccc2)cc1C(=O)O`: the Kd is > 4 mM (inactive).

Take `Oc1ccc2nonc2c1`: the Kd is > 4 mM (inactive).

In the case of `NCc1cc2ccccc2s1`, the Kd was > 4 mM (inactive).

Consider `Cc1cc(C(=O)NN2CCOCC2)c(C)o1`, for which the Kd is > 4 mM (inactive).

Take `Cc1ccc(C(=O)N2CCC(C(N)=O)CC2)c(Cl)c1`: the Kd is > 4 mM (inactive).

With `c1ccn(Cc2ccncc2)c1`, the Kd is > 4 mM (inactive).

For `S=C(NCc1ccco1)NN1CCOCC1`, the Kd is > 4 mM (inactive).

On to `CCNS(=O)(=O)c1cc(Br)ccc1OC`, for which the Kd is > 4 mM (inactive).

`O=C(NCc1cccc(Cl)c1)c1cnccn1`: the Kd is > 4 mM (inactive).

In the case of `O=C1CN2C(=N1)N(Cc1ccccc1)c1ccccc12`, the Kd was > 4 mM (inactive).

`CS(=O)(=O)N1CCN(c2ncccn2)CC1`: the Kd was > 4 mM (inactive).
